The test system of one experiment is S. aureus. Kind of experiment: MIC determination (agar dilution or broth microdilution), activity against S. aureus. Format: cell-based. Also on record: unit not given beside the values. To be noted: Comparison: MIC values for the actives taken alone. The protocol:
(§1) Synergistic activity of mixtures of 4-Isopropyl-3-methylphenol an alpha bisabolol with regard to S. aureus and S. epidermidis was determined. […]
(§2) Antimicrobial activity was evaluated by determining the Minimum Inhibitory Concentration (MIC) representing the lowest concentration of a chemical which prevents visible growth of a bacterium.
(§3) The MIC values were determined by preparing solutions of the chemical in vitro at increasing concentrations, incubating the solutions with the separate batches of cultured bacteria, and measuring the results using agar dilution or broth microdilution. Results have been graded into susceptible (often called sensitive), intermediate, or resistant to a particular antibiotic by using a cutoff point. Cut off points are agreed upon values, published in guidelines of a reference body, such as the U.S. Clinical and Laboratory Standards Institute (CLSI), the British Society for Antimicrobial Chemotherapy (BSAC) or the European Committee on Antimicrobial Susceptibility Testing (EUCAST).

Another experiment concerns S. epidermitis. Kind of experiment: MIC determination (agar dilution or broth microdilution), activity against S. epidermitis. Type of experiment: cell-based. The settings on record: Comparison: MIC values for the actives taken alone. Also on record: unit not given beside the values. As for the experimental part: as §1, §2, §3
In general terms: Agar dilution tests growth on a series of plates holding different concentrations.

The subject of experiment [1] is mold growth on moist alfalfa hay. The settings on record: moist alfalfa hay preservation, Agronomy Journal 47, 64-69, 1955; cited from earlier work.

In the case of `CC(C)=CCC[C@](C)(O)[C@@H]1CC=C(C)CC1` [alpha-Bisabolol], the MIC in the experiment on S. aureus and in the experiment with S. epidermitis was 125 in each case.
Consider `Cc1cc(O)ccc1C(C)C` [4-Isopropyl-3-methylphenol], for which the MIC in the experiment on S. aureus and in the experiment with S. epidermitis was 250 each time.
In the case of `CC(=O)c1ccc(O)cc1` [4-hydroxyacetophenone], in experiment [1], the “prevention of mold growth” value is “not prevent mold growth”.

Source of the values: patent US20220168198A1, “AN ANTIMICROBIAL MIXTURE” (SYMRISE AG, priority 2019, published 2022).
